Patent US20220313670A1, “Methods Of Treating Fabry Disease In Patients Having Renal Impairment” (Amicus Therapeutics, Inc., priority 2019, published 2022)
Where two headings read alike, the source gives them in different places.

How the values were obtained:
[1] = cited from earlier work; for Mean percent of the dose recovered in urine: single ascending dose (SAD) study
Fabry disease = assay: Phase 3 studies (FACETS, ATTRACT) of migalastat 150 mg every other day in Fabry patients; type: in vivo, human
Source text: One or more of the dosing regimens described herein are particularly suitable for Fabry patients who have some degree of renal impairment. […]00925301) was a 24-month trial, including a 6-month double-blind, placebo-controlled period, in 67 enzyme replacement therapy (ERT)-naive patients. ATTRACT (012, NCT01218659) was an active-controlled, 18-month trial in 57 ERT-experienced patients with a 12-month open-label extension (OLE). […] Accordingly, both studies included Fabry patients with normal renal function as well as patients with mild and moderate renal impairment, but neither study included patients with severe renal impairment. […] With a slowing in the ability to clear the drug from the body there can be an increasing exposure to the patient to the drug. Thus, in some embodiments a dose adjustment protocol is provided to inform physicians of the best dose taking into consideration the current clearance profile from the body. Dose adjustment is particularly difficult with a chaperone because it is an inhibitor, and a delicate balance must be reached such that the chaperone is present in amounts great enough to be therapeutic, but also not so great that the chaperone inhibits enzyme function (which would exacerbate the disease).

[2] = Plasma migalastat concentration in two Fabry patients with renal impairment (P1, P2; Example 3); type: in vivo, human; conditions: for concentration at 0 h: human, plasma, Fabry patient P1 (moderate renal impairment), Pre-dose (0 h)
Description: (§1) Migalastat levels can be measured via methods known in the art. […] Microcentrifuge tubes containing 100 μl of the tissue homogenate or 50 μl of plasma may then be spiked with 500 ng/mL 13C d2-AT1001 HCl internal standard (manufactured by MDS Pharma Services). A 600 μl volume of 5 mM HCl in 95/5 MeOH:H2O can then be added and the tubes vortexed for 2 minutes, followed by centrifugation at 21000×g for 10 minutes at room temperature. The supernatants may then be collected into a clean, 96-well plate, diluted with 5 mM HCl in dH2O and applied to a 96-well solid phase extraction (SPE) plate (Waters Corp., Milford Mass.). […] The liquid chromatography can be conducted using an ACN:water:formate binary mobile phase system (mobile phase A: 5 mM ammonium formate, 0.5% formic acid in 95:5 ACN:water; mobile phase B: 5 mM ammonium formate, 0.5% formic acid in 5:47.5:47.5 ACN:MeOH:water) with a flow rate of 0.7 mL/minute on an Halo HILIC column (150×4.6 mm, 2.7 μm) (Advanced Materials Technology, Inc.). MS/MS analysis may be carried out under APCi positive ion mode. The same procedure may be followed for migalastat determination in plasma except without homogenization. […] A 12-point calibration curve and quality control samples may be prepared. […] To derive approximate molar concentrations, one gram of tissue may be estimated as one mL of volume.
Thus, two Fabry patients with renal impairment were evaluated. One patient (P1) had moderate renal impairment, while the other patient (P2) had severe renal impairment. […] The comparison with the results from the FACETS study allows for comparison of PK in the Fabry population with mostly normal, but some mild and a few moderately impaired Fabry patients. None had severe renal impairment because these patients were excluded from the study.

[3] = Pharmacokinetics of migalastat HCl in a Fabry patient with severe renal impairment (P3, 2004-5029; Example 6); type: in vivo, human
Description: as §1
PK data was collected every three months.

[4] = eGFR (MDRD), IDMS traceable, in Fabry patients on migalastat; type: in vivo, human; set-up: eGFR(MDRD), IDMS Traceable: unit not given here
Description: An estimated GFR (eGFR) is calculated from serum creatinine using an isotope dilution mass spectrometry (IDMS) traceable equation. Two of the most commonly used equations for estimating glomerular filtration rate (GFR) from serum creatinine are the Chronic Kidney Disease Epidemiology Collaboration (CKD-EPI) equation and the Modification of Diet in Renal Disease (MDRD) Study equation. Both the MDRD Study and CKD-EPI equations include variables for age, gender, and race, which may allow providers to observe that CKD is present despite a serum creatinine concentration that appears to fall within or just above the normal reference interval. The following is the IDMS-traceable MDRD Study equation (for creatinine methods calibrated to an IDMS reference method): […]

[5] = Fabry patient P1, moderate renal impairment
[6] = Severe RI Fabry patient 2004-5029 (P3), CLcr 21, 5/17, Q4D regimen
[7] = human, plasma, Severe RI Fabry patient 2004-5029 (P3), CLcr 21, 5/17, Q4D regimen

OC[C@H]1NC[C@H](O)[C@@H](O)[C@H]1O [migalastat, (2R,3S,4R,55)-2-(hydroxymethyl) piperdine-3,4,5-triol]
accumulation of plasma migalastat ([1]; multiple ascending dose studies): only minimal accumulation | Mean Cmax and AUC0-t values versus dose ([1]; oral doses from 75 mg to 1250 mg): increased in a dose-proportional manner | Mean percent of the dose recovered in urine ([1]; 25 mg): 32.2% | Mean percent of the dose recovered in urine ([1]; 75 mg): 43.0% | Mean percent of the dose recovered in urine ([1]; 225 mg): 49.3% | Mean percent of the dose recovered in urine ([1]; 675 mg): 48.5% | time to maximum concentrations ([1]; single-dose studies, oral, healthy volunteers and Fabry patients with normal to mildly impaired renal function (range, 1 to 6 hrs)): approximately 3 hours | disease progression as shown by surrogate markers (Fabry disease): slowed the progression of the disease | increase of C48h concentration over 6 months [2, 5]: 49% | increase of Cmax over 6 months [2, 5]: 33% | concentration at 0 h ([2]; Migalastat Conc 6 months later): 36.4 ng/mL | concentration at 0 h ([2]; Migalastat Conc, first set): 19.9 ng/mL | Plasma Migalastat Conc ([3]; Fabry patient P3, May ′17 (Q4D), 0 h): BLQ | CL/F [3, 6]: 4.67 L/h | Frel [3, 6]: 2.6 | concentration at 0 h ([3]; human, plasma, Plasma Migalastat Conc, Fabry patient P3, Aug ′15, 0 h): 36.4 ng/mL | concentration at 3 h ([3]; human, plasma, Plasma Migalastat Conc, Fabry patient P3, Aug ′15, 3 h): 2160 ng/mL | concentration at 24 h ([3]; human, plasma, Plasma Migalastat Conc, Fabry patient P3, Aug ′15, 24 h): 211 ng/mL | concentration at 48 h ([3]; human, plasma, Plasma Migalastat Conc, Fabry patient P3, Aug ′15, 48 h): 62.4 ng/mL | concentration at 48 h ([3]; human, plasma, Plasma Migalastat Conc, Fabry patient P3, Aug ′17 (Q4D), 48 h): 130 ng/mL | concentration at 96 h ([3]; human, plasma, Plasma Migalastat Conc, Fabry patient P3, Aug ′17 (Q4D), 96 h): 61.3 ng/mL | concentration at 0 h ([3]; human, plasma, Plasma Migalastat Conc, Fabry patient P3, Feb ′15, 0 h): 19.9 ng/mL | concentration at 3 h ([3]; human, plasma, Plasma Migalastat Conc, Fabry patient P3, Feb ′15, 3 h): 1620 ng/mL | concentration at 24 h ([3]; human, plasma, Plasma Migalastat Conc, Fabry patient P3, Feb ′15, 24 h): 168 ng/mL | concentration at 48 h ([3]; human, plasma, Plasma Migalastat Conc, Fabry patient P3, Feb ′15, 48 h): 41.8 ng/mL | concentration at 0 h ([3]; human, plasma, Plasma Migalastat Conc, Fabry patient P3, Mar ′11, 0 h): 38.1 ng/mL | concentration at 3 h ([3]; human, plasma, Plasma Migalastat Conc, Fabry patient P3, Mar ′11, 3 h): 1560 ng/mL | concentration at 4 h ([3]; human, plasma, Plasma Migalastat Conc, Fabry patient P3, Mar ′11, 4 h): 1570 ng/mL | concentration at 8 h ([3]; human, plasma, Plasma Migalastat Conc, Fabry patient P3, Mar ′11, 8 h): 802 ng/mL | concentration at 3 h ([3]; human, plasma, Plasma Migalastat Conc, Fabry patient P3, May ′17 (Q4D), 3 h): 2110 ng/mL | concentration at 4 h ([3]; human, plasma, Plasma Migalastat Conc, Fabry patient P3, May ′17 (Q4D), 4 h): 1970 ng/mL | concentration at 8 h ([3]; human, plasma, Plasma Migalastat Conc, Fabry patient P3, May ′17 (Q4D), 8 h): 1380 ng/mL | concentration at 24 h ([3]; human, plasma, Plasma Migalastat Conc, Fabry patient P3, May ′17 (Q4D), 24 h): 358 ng/mL | concentration at 48 h ([3]; human, plasma, Plasma Migalastat Conc, Fabry patient P3, May ′17 (Q4D), 48 h): 77.4 ng/mL | concentration at 96 h ([3]; human, plasma, Plasma Migalastat Conc, Fabry patient P3, May ′17 (Q4D), 96 h): 18.4 ng/mL | concentration at 48 h ([3]; human, plasma, Plasma Migalastat Conc, Fabry patient P3, Nov ′17 (Q4D), 48 h): 401 ng/mL | concentration at 96 h ([3]; human, plasma, Plasma Migalastat Conc, Fabry patient P3, Nov ′17 (Q4D), 96 h): 86.2 ng/mL | concentration at 48 h ([3]; human, plasma, Severe RI Fabry patient 2004-5029 (P3), CLcr 15, 11/17, Q4D regimen, read-out: C48 h): 401 ng/mL | concentration at 96 h ([3]; human, plasma, Severe RI Fabry patient 2004-5029 (P3), CLcr 15, 11/17, Q4D regimen, read-out: C96 h): 86.2 ng/mL | concentration at 48 h ([3]; human, plasma, Severe RI Fabry patient 2004-5029 (P3), CLcr 19, 8/17, Q4D regimen, read-out: C48 h): 130 ng/mL | concentration at 96 h ([3]; human, plasma, Severe RI Fabry patient 2004-5029 (P3), CLcr 19, 8/17, Q4D regimen, read-out: C96 h): 61.3 ng/mL | AUC(0-inf) [3, 7]: 32100 ng·h/mL | AUC(0-t) [3, 7]: 31900 ng·h/mL | Cmax [3, 7]: 2250 ng/mL | half-life [3, 7]: 13.2 h | tmax [3, 7]: 2 h | concentration at 48 h ([3]; human, plasma, Severe RI Fabry patient 2004-5029 (P3), CLcr 21, 5/17, Q4D regimen, read-out: C48 h): 77.4 ng/mL | concentration at 96 h ([3]; human, plasma, Severe RI Fabry patient 2004-5029 (P3), CLcr 21, 5/17, Q4D regimen, read-out: C96 h): 18.4 ng/mL | eGFR(MDRD), IDMS Traceable ([4]; Fabry patient P1, 18 Month Visit): 42 | eGFR(MDRD), IDMS Traceable ([4]; Fabry patient P1, 24 Month Visit): 37 | eGFR(MDRD), IDMS Traceable ([4]; Fabry patient P1, 34-Month Visit): 32 | eGFR ([4]; Fabry patient P3, Aug ′15): 32 mL/min/1.73 m^2 | eGFR ([4]; Fabry patient P3, Aug ′17): 19 mL/min/1.73 m^2 | eGFR(MDRD), IDMS Traceable ([4]; Fabry patient P3, August 2014, QOD): 37 | eGFR(MDRD), IDMS Traceable ([4]; Fabry patient P3, August 2017, Q4D): 19 | eGFR(MDRD), IDMS Traceable ([4]; Fabry patient P3, February 2014, QOD): 42 | eGFR(MDRD), IDMS Traceable ([4]; Fabry patient P3, February 2018, Q7D): 13 | eGFR(MDRD), IDMS Traceable ([4]; Fabry patient P3, January 2018, Q7D): 13 | eGFR(MDRD), IDMS Traceable ([4]; Fabry patient P3, June 2015, QOD): 32 | eGFR ([4]; Fabry patient P3, Mar ′11): 59 mL/min/1.73 m^2 | eGFR(MDRD), IDMS Traceable ([4]; Fabry patient P3, March 2011, QOD): 59 | eGFR(MDRD), IDMS Traceable ([4]; Fabry patient P3, March 2016, QOD): 28 | eGFR(MDRD), IDMS Traceable ([4]; Fabry patient P3, May 2017, Q4D): 21 | eGFR ([4]; Fabry patient P3, May ′17): 21 mL/min/1.73 m^2 | eGFR ([4]; Fabry patient P3, Nov ′17): 15 mL/min/1.73 m^2 | eGFR(MDRD), IDMS Traceable ([4]; Fabry patient P3, November 2017, Q4D): 15 | eGFR(MDRD), IDMS Traceable ([4]; Fabry patient P3, September 2010, QOD): 54 | eGFR(MDRD), IDMS Traceable ([4]; Fabry patient P3, September 2015, QOD): 33
